Experimental data reported in publication PMC3681751, “Identification of a Novel Antimicrobial Peptide from Human Hepatitis B Virus Core Protein Arginine-Rich Domain (ARD)” (PLoS Pathogens, 2013).
Like-named read-outs stand apart in the source and are kept apart here. Non-standard residues stand in square brackets, D forms with d. No end group written: not given here. pS = N[C@@H](COP(=O)(O)O)C(=O)O

How the values were obtained:
HepG2 cells = experiment: Peptide uptake into mammalian cells; type: cell-based, human; conditions: peptide added to the medium of HepG2 cells
Procedure: To set up CFSE cell proliferation assay, 293 cells (human kidney origin) and Vero cells (monkey kidney origin) were resuspended in PBS to a final concentration of 10^6 cells/ml, before incubation with 10 µM CFSE dye (CellTrace CFSE cell proliferation kit, Invitrogen) at 37°C for 10 min. To quench the staining, ice-old culture media were then added and incubated on ice for 5 min. Labeled cells were then pelleted and washed three times by fresh medium containing 10% FBS before seeding into six well plates at a density of 3.3×10^5cells/well. After 20 h, the medium was removed and incubated with fresh medium containing 5, 25 and 100 µM HBc 147-183 for one hour (FITC-labeled ARD peptide had been largely internalized in 10 minutes after the addition of ARD peptides to the medium of HepG2 cells). Forty-eight hours later, cells were harvested and analyzed by flow cytometry (FACSCanto, BD Bioscience).

[1] = test system: P. aeruginosa (ATCC 9027); type: cell-based, Pseudomonas aeruginosa; conditions: ampicillin-resistant strain, triplicate
Procedure: (§1) The antimicrobial activities of HBc ARD peptides were tested using a number of bacterial strains from ATCC, including Pseudomonas aeruginosa Migula strain (ATCC 27853, ampicillin-resistant), Pseudomonas aeruginosa Migula strain (ATCC 9027, ampicillin-resistant), Klebsiella pneumoniae strain (ATCC 17593), Escherichia coli strain (ATCC 25922), Staphylococcus aureus subsp. strain (ATCC 25923, methicillin-resistant), Staphylococcus aureus subsp. strain (ATCC 29213, methicillin-resistant), Staphylococcus aureus subsp. strain (ATCC 19636, methicillinresistant), and Candida albicans strain (ATCC 10231).
(§2) All peptides were purchased from Yao-Hong Biotechnology Inc. (Taipei, Taiwan). Vendors provided data of peptide characterizations, including HPLC and Mass (data not shown). Antimicrobial activity was determined as described with some modifications as detailed below. Bacteria were grown overnight in Mueller–Hinton broth (Difco) at 37°C, and during the mid-logarithmic phase, bacteria were diluted to 10^6 CFU (colony formation unit)/ml in phosphate buffer (10 mM sodium phosphate and 50 mM sodium chloride, pH 7.2). Peptides were serially diluted in the same buffer. Fifty microliter (µl) of bacteria was mixed with fifty µl of peptides at varying concentrations followed by incubation at 37°C for 3 hours without shaking. At the end of incubation, bacteria were placed on Mueller-Hinton broth agar plates, and allowed growth at 37°C overnight for measurement of minimal bactericidal concentration (MBC). […] All peptides were tested in triplicate.

[2] = test system: P. aeruginosa (ATCC 27853); type: cell-based, Pseudomonas aeruginosa; conditions: ampicillin-resistant strain, triplicate
Procedure: as §1, §2

E. coli (ATCC 25922) = type: cell-based, Escherichia coli; conditions: triplicate
Procedure: as §1, §2

[3] = test system: K. pneumonia (ATCC 13884); type: cell-based, Klebsiella pneumoniae; conditions: triplicate
S. aureus (ATCC 19636) = type: cell-based, Staphylococcus aureus; conditions: methicillin-resistant strain, triplicate
Procedure: as §1, §2

S. aureus (ATCC 29213) = type: cell-based, Staphylococcus aureus; conditions: methicillin-resistant strain, triplicate
Procedure: as §1, §2

S. aureus (ATCC 25923) = type: cell-based, Staphylococcus aureus; conditions: methicillin-resistant strain, triplicate
Procedure: as §1, §2

[4] = test system: tested bacteria and fungi; type: cell-based; conditions: summary over the tested bacteria of Table 1
Procedure: as §1, §2

[5] = 3 h at 37°C in 10 mM sodium phosphate, 50 mM NaCl, pH 7.2, 10^6 CFU/ml, ND = not detectable
[6] = 3 h at 37°C in phosphate buffer pH 7.2

| Substance | Time after which peptide was largely internalized (HepG2 cells) [min] | Antimicrobial activity, MBC [1, 5] [µM] | Antimicrobial activity, MBC [1, 6] [µg/mL] | Antimicrobial activity, MBC [2, 5] [µM] | Antimicrobial activity, MBC [2, 6] [µg/mL] | Antimicrobial activity, MBC (E. coli (ATCC 25922); [5]) [µM] | Antimicrobial activity, MBC (E. coli (ATCC 25922); [6]) [µg/mL] | Antimicrobial activity, MBC [3, 5] [µM] | Antimicrobial activity, MBC [3, 6] [µg/mL] | Antimicrobial activity, MBC (S. aureus (ATCC 19636); [5]) [µM] | Antimicrobial activity, MBC (S. aureus (ATCC 19636); [6]) [µg/mL] | Antimicrobial activity, MBC (S. aureus (ATCC 29213); [5]) [µM] | Antimicrobial activity, MBC (S. aureus (ATCC 29213); [6]) [µg/mL] | Antimicrobial activity, MBC (S. aureus (ATCC 25923); [5]) [µM] | Antimicrobial activity, MBC (S. aureus (ATCC 25923); [6]) [µg/mL] | MBC for bacteria [4] [µM] |
| --- | --- | --- | --- | --- | --- | --- | --- | --- | --- | --- | --- | --- | --- | --- | --- | --- |
| FITC-labeled HBc147-183: FITC-labeled HBc147-183 used for localization by confocal microscopy (TVVRRRGRSPRRRTPSPRRRRSQSPRRRRSQSRESQC; also: FITC label, place not given here; UniProt P03147 147-183, looked up, fragment) | 10 | – | – | – | – | – | – | – | – | – | – | – | – | – | – | – |
| HBc155p: HBc147-183 phosphorylated on S155 (TVVRRRGRSPRRRTPSPRRRRSQSPRRRRSQSRESQC; phosphorylated S155; UniProt P03147 147-183, looked up, fragment) | – | 8 | 37.4 | 8 | 37.4 | 8 | 37.4 | 1 | 4.67 | 8 | 37.4 | 8 | 37.4 | 8 | 37.4 | 8 |
| HBc170p: HBc147-183 phosphorylated on S170 (TVVRRRGRSPRRRTPSPRRRRSQ[pS]PRRRRSQSRESQC; UniProt P03147 147-183, looked up, fragment) | – | ~32 | ~149.5 | ~32 | ~149.5 | ~32 | ~149.5 | 8 | 37.4 | ~32 | ~149.5 | ~32 | ~149.5 | ~32 | ~149.5 | 32 |
| HBc176p: HBc147-183 phosphorylated on S176 (TVVRRRGRSPRRRTPSPRRRRSQSPRRRR[pS]QSRESQC; UniProt P03147 147-183, looked up, fragment) | – | 8 | 37.4 | 8 | 37.4 | 8 | 37.4 | 4 | 18.68 | 8 | 37.4 | 8 | 37.4 | 8 | 37.4 | 8 |
